Where two headings read alike, the source gives them in different places.
Columns and labels:
NLuc C. parvum = NLuc C. parvum growth in HCT-8 cells (UW); format: cell-based; details: Cryptosporidium parvum
NLuc C. parvum (Calibr) = assay: Calibr panel, UA Nanoluc C. parvum count; format: cell-based; details: Cryptosporidium parvum
[1] = Stability of M2 hemiaminal in buffer; format: physicochemical; details: pH 6.8 phosphate buffer, ambient temperature
PPARγ = target: T1, PPARγ (Homo sapiens, UniProt P37231); assay: Cerep binding assay; details: agonist radioligand, mean
T1 construct: Cerep (Eurofins, France)

AT2 = target: T2, AT2 (Homo sapiens, UniProt P50052); assay: Cerep binding assay
T2 construct: Cerep (Eurofins, France)

5-HT2B = target: T3, 5-HT2B (Homo sapiens, UniProt P41595); assay: Cerep binding assay; details: agonist radioligand, mean, read-out: % inhibition of control specific binding
T3 construct: Cerep (Eurofins, France)

CYP2C19 = CYP2C19 (Homo sapiens, UniProt P33261); assay: in vitro; details: recombinant CYP2C19 supersomes
CYP1A2 = target: T4, CYP1A2 (Homo sapiens, UniProt P05177); assay: biochemical
T4 sequence (P05177 1-516): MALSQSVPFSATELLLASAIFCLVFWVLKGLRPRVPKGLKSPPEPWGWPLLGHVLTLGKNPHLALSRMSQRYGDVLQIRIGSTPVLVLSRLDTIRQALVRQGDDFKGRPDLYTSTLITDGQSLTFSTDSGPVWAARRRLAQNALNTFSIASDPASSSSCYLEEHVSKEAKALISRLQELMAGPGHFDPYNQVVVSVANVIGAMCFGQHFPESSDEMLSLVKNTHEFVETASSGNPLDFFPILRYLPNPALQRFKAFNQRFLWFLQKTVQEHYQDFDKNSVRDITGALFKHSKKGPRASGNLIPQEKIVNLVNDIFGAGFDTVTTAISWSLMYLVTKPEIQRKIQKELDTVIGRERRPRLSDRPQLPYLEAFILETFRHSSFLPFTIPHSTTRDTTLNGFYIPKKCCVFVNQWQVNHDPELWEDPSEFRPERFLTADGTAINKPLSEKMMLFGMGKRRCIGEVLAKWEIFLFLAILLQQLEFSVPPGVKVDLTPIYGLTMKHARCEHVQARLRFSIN

Cytotoxicity [2] = details: human, CRL-8155 B-lymphocyte cell line
Cytotoxicity [3] = details: human, HEPG2 hepatocyte cell line
Hepatocyte stability [4] = details: dog
Hepatocyte stability [5] = details: monkey
[6] = Liver microsome stability; details: dog, pooled liver microsomes
[7] = HCT-8 host cell count (Calibr); details: human
zebrafish embryos = assay: Zebrafish developmental safety assay; details: 4 days
CYP1A1 = assay: CYP Induction Assay in dog hepatocytes; details: 30 and 100 μM, 48 h
[8] = Plasma protein binding, equilibrium dialysis; details: mouse
[9] = Plasma protein binding, equilibrium dialysis; details: human
[10] = Plasma protein binding, equilibrium dialysis; details: bovine
A3 = target: T5, A3 (Homo sapiens, UniProt P0DMS8); assay: Cerep cellular and nuclear receptor functional assay
T5 sequence (P0DMS8 1-318): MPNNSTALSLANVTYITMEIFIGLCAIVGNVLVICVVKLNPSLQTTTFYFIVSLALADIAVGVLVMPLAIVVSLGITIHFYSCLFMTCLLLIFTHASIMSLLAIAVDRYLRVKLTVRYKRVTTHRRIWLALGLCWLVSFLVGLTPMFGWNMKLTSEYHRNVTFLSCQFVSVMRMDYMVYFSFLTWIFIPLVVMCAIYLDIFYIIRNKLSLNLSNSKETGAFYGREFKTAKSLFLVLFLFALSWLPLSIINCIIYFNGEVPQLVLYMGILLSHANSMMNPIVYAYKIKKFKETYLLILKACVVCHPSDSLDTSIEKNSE

[11] = Balb/c, mouse, plasma, iv, 1 mg/kg
[12] = Balb/c, mouse, plasma, po, 30 mg/kg
[13] = liver microsomes and primary hepatocytes

T1 sequence (P37231 whole entry): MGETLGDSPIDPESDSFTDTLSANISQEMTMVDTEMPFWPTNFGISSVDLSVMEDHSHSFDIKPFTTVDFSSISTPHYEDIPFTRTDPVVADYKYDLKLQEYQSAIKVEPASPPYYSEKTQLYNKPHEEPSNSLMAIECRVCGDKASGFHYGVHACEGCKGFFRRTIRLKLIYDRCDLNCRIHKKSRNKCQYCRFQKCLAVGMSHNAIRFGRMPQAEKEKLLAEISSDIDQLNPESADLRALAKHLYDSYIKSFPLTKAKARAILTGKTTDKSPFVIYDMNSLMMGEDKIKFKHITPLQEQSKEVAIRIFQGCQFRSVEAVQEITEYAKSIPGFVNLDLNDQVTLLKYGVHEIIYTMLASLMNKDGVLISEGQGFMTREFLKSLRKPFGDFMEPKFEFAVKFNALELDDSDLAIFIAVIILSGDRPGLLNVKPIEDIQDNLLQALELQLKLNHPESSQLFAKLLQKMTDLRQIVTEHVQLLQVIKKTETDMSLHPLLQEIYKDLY
T2 sequence (P50052 whole entry): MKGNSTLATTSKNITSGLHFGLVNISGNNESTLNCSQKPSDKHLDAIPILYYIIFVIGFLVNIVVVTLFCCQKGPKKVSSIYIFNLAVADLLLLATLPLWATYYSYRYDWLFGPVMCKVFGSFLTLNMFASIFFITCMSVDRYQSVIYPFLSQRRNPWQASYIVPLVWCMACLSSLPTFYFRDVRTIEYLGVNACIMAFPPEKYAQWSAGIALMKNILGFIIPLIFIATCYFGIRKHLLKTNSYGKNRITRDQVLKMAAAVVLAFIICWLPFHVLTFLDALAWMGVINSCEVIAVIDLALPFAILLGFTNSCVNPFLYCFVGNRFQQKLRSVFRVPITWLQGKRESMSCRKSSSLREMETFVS
Sequence of CYP2C19 (P33261 whole entry): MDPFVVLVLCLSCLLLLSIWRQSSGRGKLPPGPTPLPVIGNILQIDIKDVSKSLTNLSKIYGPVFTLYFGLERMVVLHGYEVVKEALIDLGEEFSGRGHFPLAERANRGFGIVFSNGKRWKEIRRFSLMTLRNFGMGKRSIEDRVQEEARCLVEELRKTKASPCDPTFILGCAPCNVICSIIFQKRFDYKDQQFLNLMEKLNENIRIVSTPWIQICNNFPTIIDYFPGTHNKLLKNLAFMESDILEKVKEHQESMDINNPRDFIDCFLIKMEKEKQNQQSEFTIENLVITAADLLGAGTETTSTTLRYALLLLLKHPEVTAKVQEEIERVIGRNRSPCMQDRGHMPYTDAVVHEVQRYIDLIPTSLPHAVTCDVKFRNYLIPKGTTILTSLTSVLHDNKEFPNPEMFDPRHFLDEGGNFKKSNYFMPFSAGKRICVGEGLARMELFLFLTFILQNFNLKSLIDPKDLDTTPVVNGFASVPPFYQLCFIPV
T3 sequence (P41595 whole entry): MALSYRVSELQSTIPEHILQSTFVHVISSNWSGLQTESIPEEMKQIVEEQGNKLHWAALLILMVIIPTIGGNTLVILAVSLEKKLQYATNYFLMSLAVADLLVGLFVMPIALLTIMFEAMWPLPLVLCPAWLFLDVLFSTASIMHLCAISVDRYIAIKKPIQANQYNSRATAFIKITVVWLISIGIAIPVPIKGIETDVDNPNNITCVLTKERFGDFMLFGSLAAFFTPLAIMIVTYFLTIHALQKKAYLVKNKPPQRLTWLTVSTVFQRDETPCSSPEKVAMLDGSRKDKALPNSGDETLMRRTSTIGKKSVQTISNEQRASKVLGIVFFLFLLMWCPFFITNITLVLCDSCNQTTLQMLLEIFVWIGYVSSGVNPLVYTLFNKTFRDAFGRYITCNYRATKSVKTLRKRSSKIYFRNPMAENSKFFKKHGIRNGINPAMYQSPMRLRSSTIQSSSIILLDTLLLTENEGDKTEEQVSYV

Compound `CC1(C)Cn2nc(-c3ccc4cc(OC5CC5)ccc4c3)c(C(N)=O)c2NC1O` (centres unmarked) [M2] has an EC50 (NLuc C. parvum) of 0.73 µM, an EC50 (NLuc C. parvum (Calibr); Replicate 1, read-out: UA Nanoluc C. parvum Count EC50) of 0.468 µM and an EC90 (NLuc C. parvum (Calibr); Replicate 1, read-out: UA Nanoluc C. parvum Count EC90) of 1.46 µM. It also gave an EC50 (NLuc C. parvum (Calibr); Replicate 2, read-out: UA Nanoluc C. parvum Count EC50) of 0.212 µM, an EC90 (NLuc C. parvum (Calibr); Replicate 2, read-out: UA Nanoluc C. parvum Count EC90) of 1.01 µM and an EC50 (NLuc C. parvum (Calibr); read-out: EC50) of 0.34 µM. The EC90 (NLuc C. parvum (Calibr); read-out: EC90) was 1.24 µM, the time hemiaminal stable [1] was “up to 24 h” and the “% inhibition of control specific binding” value (PPARγ; 10 μM) was 70.1%. The inhibition at 10 µM (PPARγ; read-out: % inhibition of control specific binding) was 70%, the IC50 (AT2) was 4.6 µM and the inhibition at 10 µM (AT2; 10 μM, agonist radioligand, mean, read-out: % inhibition of control specific binding) was 50.7%. The inhibition at 10 µM (5-HT2B) was 57.1%, the CLint scaled (CYP2C19) was less than 0.117 mL/min/kg and the half-life (CYP2C19) was greater than 4 h. It also gave an IC50 (CYP1A2) greater than 40 µM, a CC50 (Cytotoxicity [2]) of 15.6 µM and a CC50 (Cytotoxicity [3]) of 13.4 µM. For the same compound, the C0 (Mouse PK, Balb/c; [11]) was 4.2 ± 1.3 µM, the Vd (Mouse PK, Balb/c; [11]) was 0.9 L/kg and the clearance (Mouse PK, Balb/c; [11]) was 6.2 mL/min/kg. The half-life (Mouse PK, Balb/c; [11]) was 1.77 h, the Cmax (Mouse PK, Balb/c; [12]) was 13.1 ± 1.3 µM and the Tmax (Mouse PK, Balb/c; [12]) was 1.5 h. The bioavailability (Mouse PK, Balb/c; [12]) was 43%, the half-life (Mouse PK, Balb/c; [12]) was 3.07 h and the AUC0-inf (Mouse PK, Balb/c; M2 IV 1 mg/kg) was 400 ± 42 µmol·min/L. For the same compound, the AUC0-inf (Mouse PK, Balb/c; M2 PO 30 mg/kg) was 5185 ± 1500 µmol·min/L, the “M2 AUC0-inf” value (Mouse PK, Balb/c; after BKI-1708 IV 3 mg/kg) was 988 ± 162 µmol·min/L and the “M2 AUC0-inf” value (Mouse PK, Balb/c; after BKI-1708 PO 15 mg/kg) was 6445 ± 654 µmol·min/L. The “LM:hepatocyte CLint_scaled ratio” value (Hepatocyte stability [4]; [13]) was less than 2.5, the CLint scaled (Hepatocyte stability [4]; primary hepatocytes) was 13.3 mL/min/kg and the half-life (Hepatocyte stability [4]; primary hepatocytes) was 6.85 h. For the same compound, the hepatocyte CLint (Hepatocyte stability [4]; primary hepatocytes) was 3.4 µL/min/1e6 cells, the “LM:hepatocyte CLint_scaled ratio” value (Hepatocyte stability [5]; [13]) was 5.5 and the CLint scaled (Hepatocyte stability [5]; primary hepatocytes) was 10 mL/min/kg. For the same compound, the half-life (Hepatocyte stability [5]; primary hepatocytes) was 6.48 h, the hepatocyte CLint (Hepatocyte stability [5]; primary hepatocytes) was 3.6 µL/min/1e6 cells and the “M2 AUC0-inf” value (Mouse PK, IFNγ-KO BL6; after BKI-1708 IV 3 mg/kg) was 792 ± 18 µmol·min/L. The “M2 AUC0-inf” value (Mouse PK, IFNγ-KO BL6; after BKI-1708 PO 15 mg/kg) was 5948 ± 1398 µmol·min/L, the CLint scaled [6] was less than 33.3 mL/min/kg and the half-life [6] was greater than 2 h. It also gave a microsomal CLint [6] of less than 23.1 µL/min/mg, a CC50 ([7]; CC50, HCT-8 cells infected with BGF Cp, Replicate 1) greater than 25 µM and a CC50 ([7]; CC50, HCT-8 cells infected with BGF Cp, Replicate 2) greater than 25 µM. For the same compound, the CC50 ([7]; CC50, HCT-8 cells infected with Ch, Replicate 1) was greater than 25 µM, the CC50 ([7]; CC50, HCT-8 cells infected with Ch, Replicate 2) was greater than 25 µM and the CC50 ([7]; CC50, HCT-8 cells infected with UA Nluc Cp, Replicate 1) was greater than 25 µM. The CC50 ([7]; CC50, HCT-8 cells infected with UA Nluc Cp, Replicate 2) was greater than 25 µM, the “concentration up to which zebrafish embryo development was not affected” value (zebrafish embryos) was 20 µM and the “induction of CYP1A1” value (CYP1A1) was “strong inducers”. It also gave a fraction unbound [8] of 0.04, a fraction unbound [9] of 0.04 and a fraction unbound [10] of 0.05. For the same compound, the EC50 (A3) was greater than 10 µM and the IC50 (A3) was 43 µM.
